Values quoted from earlier work, collected in patent US20190070210A1, “COMPOSITION AND METHODS FOR CONDITIONS ASSOCIATED WITH CHRONIC PULMONARY OBSTRUCTIVE DISEASE” (priority 2017, published 2019).

Settings: solution, 4° C. and neutral pH

For `NC(=O)c1ccc[n+]([C@@H]2O[C@H](COP(=O)([O-])OP(=O)(O)OC[C@H]3O[C@@H](n4cnc5c(N)ncnc54)[C@H](O)[C@@H]3O)[C@@H](O)[C@H]2O)c1` [NAD+, nicotinamide adenine dinucleotide], the “time for which solutions are stable” value is listed as “about a week”.
